# Results from the supplement of paper PMC10307832.
# Legend:
# Experiment in all cases: relative viability (nuclei count vs DMSO), 5 days (fraction); higher = more cells survive
# AZD5582 + Olaparib = compound: C[C@@H](C(=O)N[C@@H](C1CCCCC1)C(=O)N2CCC[C@H]2C(=O)N[C@@H]3[C@@H](CC4=CC=CC=C34)OCC#CC#CCO[C@@H]5CC6=CC=CC=C6[C@@H]5NC(=O)[C@@H]7CCCN7C(=O)[C@H](C8CCCCC8)NC(=O)[C@H](C)NC)NC [AZD5582] + O=C(c1cc(Cc2n[nH]c(=O)c3ccccc23)ccc1F)N1CCN(C(=O)C2CC2)CC1 [Olaparib] (partner 8 µM)
# Summary of the method: (§1)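 Nuclei were stained with Hoechst during a one-step fixation (final 0.05% Triton X-100, 1% formaldehyde, 1 ug/ml Hoechst) carried out 5 days after dosing, then counted on 4× images. The cells, lung cancer lines in 1536-well plates, had been dosed by pin tool the day after seeding with one drug alone or a fixed anchor-drug dose plus five library-drug doses (not always all listed) in √10 steps. Relative viability is the nuclei count in treated wells divided by that in vehicle wells, and each value is the median of duplicate plates.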
# [1] = compound: Cn1nnc2c(C(N)=O)ncn2c1=O [Temozolomide] + C[C@]1(O)C[C@@H](c2nc(-c3ccc4ccc(-c5ccccc5)nc4c3)c3c(N)nccn32)C1 [Linsitinib] (partner 1 µM)
# Summary of the method: as §1
# AZD5582 + Luminespib = compound: C[C@@H](C(=O)N[C@@H](C1CCCCC1)C(=O)N2CCC[C@H]2C(=O)N[C@@H]3[C@@H](CC4=CC=CC=C34)OCC#CC#CCO[C@@H]5CC6=CC=CC=C6[C@@H]5NC(=O)[C@@H]7CCCN7C(=O)[C@H](C8CCCCC8)NC(=O)[C@H](C)NC)NC [AZD5582] + CCNC(=O)c1noc(-c2cc(C(C)C)c(O)cc2O)c1-c1ccc(CN2CCOCC2)cc1 [Luminespib] (partner 0.01 µM)
# Summary of the method: as §1
# [2] = compound: Cn1nnc2c(C(N)=O)ncn2c1=O [Temozolomide] + Nc1ncn([C@H]2C[C@H](O)[C@@H](CO)O2)c(=O)n1 [Decitabine] (partner 2 µM)
# Summary of the method: as §1
Cell Line,relative viability (AZD5582 + Olaparib; first compound 0.001581 µM),relative viability (AZD5582 + Olaparib; first compound 0.005 µM),relative viability (AZD5582 + Olaparib; first compound 0.01581 µM),relative viability (AZD5582 + Olaparib; first compound 0.05 µM),relative viability ([1]; first compound 0.2 µM),relative viability ([1]; first compound 0.6325 µM),relative viability ([1]; first compound 2 µM),relative viability ([1]; first compound 6.325 µM),relative viability ([1]; first compound 20 µM),relative viability (AZD5582 + Luminespib; first compound 0.001581 µM),relative viability (AZD5582 + Luminespib; first compound 0.005 µM),relative viability (AZD5582 + Luminespib; first compound 0.05 µM),relative viability ([2]; first compound 0.2 µM),relative viability ([2]; first compound 0.6325 µM),relative viability ([2]; first compound 2 µM),relative viability ([2]; first compound 6.325 µM),relative viability ([2]; first compound 20 µM),relative viability (AZD5582 + Luminespib; first compound 0.01581 µM)
NCI-H838,0.744,0.811,0.711,0.743,1.03,1.05,1.03,1.08,1.09,0.33,0.318,0.204,0.493,0.495,0.462,0.439,0.475,
NCI-H1355,0.68,0.728,0.658,0.774,0.713,0.859,0.796,0.883,0.794,0.599,0.674,0.923,0.37,0.4,0.362,0.336,0.34,0.606
NCI-H1395,0.445,0.433,,0.464,0.821,1.05,1.31,0.978,1.04,0.579,0.685,0.91,0.707,0.716,0.849,0.657,0.717,0.805
NCI-H1437,0.711,0.649,0.648,0.623,1.15,1.02,1.11,1.01,1.14,1.11,0.986,1.14,0.604,0.54,0.586,0.61,0.572,1.12
NCI-H1651,0.175,0.183,0.18,0.163,0.998,0.99,1.14,1.04,0.969,0.859,0.904,0.96,0.599,0.614,0.656,0.594,0.62,
NCI-H1666,0.766,0.745,0.674,0.77,0.69,0.713,0.616,0.688,0.482,0.888,0.931,0.946,0.706,0.776,0.761,0.686,0.682,1.01
NCI-H1734,0.569,0.59,0.615,0.746,0.824,0.811,0.986,0.865,0.845,0.172,0.192,0.188,0.535,0.536,0.56,0.522,0.452,0.17
NCI-H1755,0.843,0.966,0.938,0.939,1.01,0.98,1.04,1,0.801,0.259,0.49,0.437,0.749,0.732,0.676,0.63,0.573,0.329
NCI-H1792,0.343,0.466,0.337,0.409,0.363,0.586,0.498,0.475,0.481,,0.594,0.579,0.434,0.599,0.407,0.549,0.54,0.496
NCI-H1793,0.674,1.08,0.75,1.23,,0.884,1.15,0.846,0.839,0.23,0.282,0.18,,0.54,0.624,0.36,0.424,0.239
NCI-H1915,0.279,0.244,0.25,0.226,1.15,1.02,0.969,0.711,0.402,0.756,0.782,0.829,0.246,0.266,0.277,0.268,0.223,0.693
NCI-H1944,0.379,0.403,0.365,0.446,0.662,1.17,1.26,1.11,0.992,0.64,0.714,0.802,0.398,0.389,0.439,0.368,0.399,0.757
NCI-H1975,0.862,1.06,0.764,0.951,0.961,1.01,0.922,0.903,0.9,0.255,0.282,0.353,0.401,0.42,0.399,0.372,0.355,0.174
NCI-H1993,0.982,1.16,1.06,1.12,0.725,0.727,0.698,0.744,0.708,0.848,1.02,0.946,0.535,0.69,0.607,0.654,0.513,0.888
NCI-H2009,0.636,0.703,0.706,0.751,1.2,1.22,1.3,1.2,1.22,0.959,0.987,1.09,0.353,0.404,0.417,0.355,0.397,1.02
